From patent US20200171063A1, “Use Of Cholesterol For Promoting Survival And Proliferation Of Primary Medulloblastoma Cells” (Institute For Cancer Research d/b/a The Research Institute …, priority 2017, published 2020)

What was measured:
[1] = test system: Ptc+/− MB subcutaneous allograft; test: Ptc+/− MB subcutaneous allograft in CB17/SCID mice; assay type: in vivo, mouse; conditions: vismodegib 5 mg/kg/day, per os
[2] = test system: MB cells isolated from Ptch1+/− mice; test: Ki67 immunocytochemistry of cultured primary MB cells; assay type: cell-based, mouse
Experimental: MB cells isolated from Ptch1^+/− mice were cultured with NB-B27 culture medium (lacking cholesterol) in the presence of simvastatin or triparanol at designated concentrations.
Cell culture: Primary mouse medulloblastoma cells were isolated from full-blown mouse-derived tumor as described before (Yang et al., 2008, Cancer Cell, 14, 135-145). Obtained cells were cultured on glass coverslips coated with 0.1 mg/ml poly-D-lysine (Millipore, A-003-E). Cells were pulsed with 10 μM of BrdU (Millipore, 19-160) for 2 hours prior to the material collection time point. […]
Histology and immunohistochemistry: Cultured primary MB cells were fixed with 4% PFA on PBS for 15 minutes, permeabilized, and blocked in 10% normal goat serum on PBST (PBS, 0.1% Triton-X100) for 1 hour at room temperature and stained against Ki67 (Abcam, ab15580, 1:1000), NeuN (Abcam, ab104224, 1:200), Caspase 3 (Cell Signaling, 9662, 1:500), BrdU (Sigma-Aldrich, B-8434, 1:500), mCherry (Abcam, ab167453, 1:500), Zic1 (Generous gift from Dr. Sigal, Dana Farber Research Institute, 1:200), S1000 (Sigma-Aldrich, 1:500), YFP (Life Technologies, 1:500).
Prior to BrdU immunostaining, cells were incubated in pH 5.0 buffer for 30 minutes at 37 C. Secondary antibodies were applied at dilution 1:500 on 10% normal goat serum on PBST for 2 hours at room temperature. Samples were counterstained with DAPI and mounted with Fluoromount-G.
MB cells were isolated from Ptc^+/− mouse and cultured in presence of simvastatin (see, FIG. 2A, panels B-D) or triparanol (see, FIG. 2A, panel E), and water-soluble cholesterol (see, FIG. 2A, panels F-J). After 48 hours in vitro, culture cells were fixed, stained against Ki67 (red), and counterstained with DAPI. […] Significance asterisk key: p value <0.05 (*), p<0.01 (**), p<0.001 (***), p<0.0001 (****).

[3] = test system: MB cells; test: MTT viability assay of MB cells; assay type: cell-based, mouse; conditions: after treatment with simvastatin or triparanol
[4] = test system: Hh signaling (Ptch1 protein expression) in Gli1-overexpressed NIH3T3 cells; test: Western blot of Ptch1 protein in Gli1-overexpressed NIH3T3 cells; assay type: cell-based; conditions: 48 hours
From the text: (§1) Having observed that MB cell proliferation was compromised after cholesterol deficiency, it was postulated that cholesterol may promote Hh pathway activation. Western blotting: Cells and tissues were lysed in RIPA buffer (Thermo) supplemented with protease (Roche) and phosphatase (Thermo) inhibitors cocktail. Total protein lysates were separated in 8% SDS-PAGE and transferred on PVDF membrane. Membranes were probed with antibodies against GLI1 (Cell Signaling, 1:1000), NSDHL (Proteintech, 1:1000), Ptch1 (Novus Biologicals, 1:1000), GAPDH (Sigma-Aldrich, 1:1000). Western Blot signals were detected with SuperSignal West Pico Substrate and exposed on films.
FIG. 4 (panels C and D) show Western blot analysis of GLI1 protein expression in Ptcfl/fl (see, FIG. 4, panel C) and SmoM2 MEFs (see, FIG. 4, panel D) following CreYFP carrying lentivirus infection and subsequent simvastatin, triparanol and water soluble cholesterol treatment for 48 hours in vitro. […] GAPDH was used as a loading control. […] In the absence of Hh ligand, its receptor Ptch1, tethers pathway effector Smo. Bound to Ptch1, Hh releases Smo, causes activation of Gli1 transcription factor, and leads to transcription of Hh pathway genes (Gli1, Ptch1, etc.). Cholesterol promotes Smo activation during Hh signal transduction. […]

[5] = test system: Hh signaling (Gli1 expression) in Ptch1-deficient MEFs; test: Western blot of Gli1 protein in Ptch1-deficient MEFs (Ptch1fl/fl + Cre lentivirus); assay type: cell-based, mouse
From the text: as §1
(§2) Primary mouse embryonic fibroblasts (MEFs) from Ptch1fl/fl mice carrying a proportion of Ptch1 gene flanked by loxp sites (Ellis et al., Genesis, 2003, 36, 158-161), or SmoM2 mice expressing a constitutively activated form of Smo upon Cre recombination (Jeong et al., Genes & Develop., 2004, 18, 937-951) were generated. MEFs were then infected with a lentivirus carrying Cre recombinase to activate Hh signaling, or with an empty vector as a control. At 48 hours after the infection, MEFs were harvested to examine Gli1 protein expression by Western blotting. […]

[6] = test system: Hh signaling (Gli1 protein expression) in NIH3T3 cells; test: Western blot of Gli1 protein in NIH3T3 cells upon Hh treatment; assay type: cell-based
From the text: as §1
MB cells isolated from Ptch1^+/− mice were treated with Simvastatin with and without addition of WSC. At 48 hours after the treatment, cells were harvested to measure Hh signaling through examining Gli1 expression by Western blotting. To further examine the requirement of cholesterol in Hh signal transduction, NIH3T3 cells that have all components involved in Hh signaling were utilized.
FIG. 4 (panels C and D) show Western blot analysis of GLI1 protein expression in Ptcfl/fl (see, FIG. 4, panel C) and SmoM2 MEFs (see, FIG. 4, panel D) following CreYFP carrying lentivirus infection and subsequent simvastatin, triparanol and water soluble cholesterol treatment for 48 hours in vitro. […] GAPDH was used as a loading control. […]

[7] = test system: Hh signaling (Gli1 protein expression) in Smo-activated MEFs; test: Western blot of Gli1 protein in Smo-activated (SmoM2) MEFs; assay type: cell-based, mouse; conditions: 48 hours
From the text: as §1, §2

[8] = test system: Hh signaling (Gli1 expression) in MB cells isolated from Ptch1+/− mice; test: Western blot of Gli1 protein expression in Ptc+/− MB cells; assay type: cell-based, mouse
From the text: as §1, with “Western blotting: Cells and tissues were lysed in RIPA buffer (Thermo) supplemented with protease (Roche) and phosphatase (Thermo) inhibitors cocktail. Total protein lysates were separated in 8% SDS-PAGE and transferred on PVDF membrane. Membranes were probed with antibodies against Gli1 (Cell Signaling, 1:1000) and GAPDH (Sigma-Aldrich, 1:1000). Western Blot signals were detected with SuperSignal West Pico Substrate and exposed on films. […] Having” for “Having”, “films. MB cells isolated from Ptch1^+/− mice were treated with Simvastatin with and without addition of WSC. At 48 hours after the treatment, cells were harvested to measure Hh signaling through examining Gli1 expression by Western blotting. […]” for “films.”

With `CS(=O)(=O)c1ccc(C(=O)Nc2ccc(Cl)c(-c3ccccn3)c2)c(Cl)c1` [vismodegib (GDC0449), vismodegib] as the molecule, how does the MB growth [1] read?
The MB growth was “prohibited MB growth”.

What does the source list for `CCN(CC)CCOc1ccc(C(O)(Cc2ccc(Cl)cc2)c2ccc(C)cc2)cc1` (centres unmarked) [triparanol]?
percentage of proliferating MB cells (Ki67+) ([2]; 48 hours in culture, NB-B27 medium lacking cholesterol, vs DMSO control): Reduced proliferation; proliferation of MB cells by MTT viability assay [3]: Repressed proliferation; upregulation of Ptch1 protein expression [4]: not altered; Gli1 expression ([5]; 48 hours): dramatically inhibited; Gli1 protein expression ([6]; NIH3T3 cells upon Hh treatment, 48 hours): significantly repressed; up-regulation of Gli1 protein expression [7]: not altered

How did the “tumor cell proliferation over time (Ki67 immunocytochemistry)” value ([2]; 15 μM WSC, 0 to 96 hours time course) turn out when `CC(C)CCC[C@@H](C)[C@H]1CC[C@H]2[C@@H]3CC=C4C[C@@H](O)CC[C@]4(C)[C@H]3CC[C@]12C` [WSC, cholesterol] was run?
Its value is “prolonged tumor cell proliferation”.

What about the “rescue of repressed MB cell proliferation (Ki67)” value ([2]; addition of cholesterol after simvastatin or triparanol treatment, 48 hours) of the same molecule?
The value was “significantly rescued”.

And the “MB cell proliferation in control culture (Ki67)” value ([2]; exogenous cholesterol, control culture without inhibitor)?
Its value is “enhanced MB cell proliferation”.

And the “restoration of Gli1 expression inhibited by simvastatin or triparanol” value ([5]; addition of exogenous cholesterol)?
The value was “restored”.

What about the “Gli1 protein expression after Simvastatin or Triparanol treatment” value ([6]; NIH3T3 cells, exogenous cholesterol added) of the same molecule?
Its value is “upregulated”.

And the “Gli1 expression levels (western blotting)” value ([8]; 15 μM WSC, in vitro for 96 hours)?
Its value is “rescued Gli1 expression levels”.

And the “Gli1 expression in Simvastatin treated MB cells” value ([8]; addition of exogenous cholesterol, 48 hours)?
The value was “rescued Gli1 expression”.
